Experimental data published in article PMC10349806 (Nature Communications, 2023).
“And” between values parts separate entries of the source, which are not always exact repeats. Equal entries are not always repeated.

Experiments:
PfCRT variant H46A = target: T1, PfCRT variant H46A (Plasmodium falciparum, UniProt Q9N623, A220S/H46A/I356T/K76T/M74I/N326S/N75E/Q271E/R371I); experiment: CQ uptake assay, oocytes expressing H46A; type: cell-based
T1 sequence (Q9N623 1-424 H46A/M74I/N75E/K76T/A220S/Q271E/N326S/I356T/R371I): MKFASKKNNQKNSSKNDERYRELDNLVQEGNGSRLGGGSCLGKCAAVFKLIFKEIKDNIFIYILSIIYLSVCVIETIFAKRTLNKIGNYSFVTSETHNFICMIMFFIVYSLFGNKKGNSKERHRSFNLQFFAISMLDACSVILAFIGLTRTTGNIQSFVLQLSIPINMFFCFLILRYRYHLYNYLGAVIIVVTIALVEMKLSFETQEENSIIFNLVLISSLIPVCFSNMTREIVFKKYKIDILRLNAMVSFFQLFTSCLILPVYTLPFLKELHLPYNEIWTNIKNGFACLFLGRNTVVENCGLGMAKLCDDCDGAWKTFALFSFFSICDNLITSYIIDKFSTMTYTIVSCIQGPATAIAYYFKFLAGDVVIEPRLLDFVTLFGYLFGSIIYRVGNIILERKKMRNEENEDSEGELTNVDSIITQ
Method: (§1) Site-directed mutagenesis of PfCRT^Dd2 was performed as described using the megaprimer method with overlap extension[21],[54]. The primer pairs used are listed in Supplementary Table 6. Please note that a codon-optimized and oocyte-adapted version of PfCRT^Dd2 was used[22] (Supplementary Fig. 16). The resulting DNA fragment was cloned into the SP64T expression vector and verified by sequencing.
(§2) Oocytes were obtained as described previously. Briefly, adult (>2 years old) female X. laevis frogs (NASCO) were anesthetized in a cooled solution of ethyl 3-amino benzoate methanesulfonate (0.1%, w/v), followed by a surgical removal of parts of the ovary. The ovary lobes were carefully dissected and small pieces of oocytes were incubated in Ca^2+-free ND96 buffer (96 mM NaCl, 2 mM KCl, 1 mM MgCl2 buffered with 5 mM HEPES/NaOH, pH 7.5) supplemented with collagenase D (0.1%, w/v; Roche), BSA (0.5%, w/v), and 9 mm Na2HPO4 at 18 °C for 14-16 h while gentle shaking. After incubation, the oocytes were carefully washed several times with ND96 buffer (96 mM NaCl, 2 mM KCl, 1.8 mM CaCl2, 1 mM MgCl2 buffered with 5 mM HEPES/NaOH, pH 7.5) supplemented with 100 mg l^−1 gentamycin). Defolliculated and healthy-looking stage V-VI oocytes were manually selected for RNA microinjection. The RNA was generated as following: The codon-optimized sequences of PfCRT variants were cloned into the pSP64T expression vector. After vector linearization using the restriction endonucleases BamHI or SalI (New England Biolabs), transcription was performed using the in vitro SP6 mMessage mMachine Kit (Ambion)[34]. The obtained RNA was kept at −80 °C and diluted with nuclease-free water to a concentration of 0.6 μg μl^−1. Precision-bore glass capillary tubes (3.5-inch glass capillaries; Drummond Scientific Co.) were pulled on a vertical puller (P-87 Flaming/Brown micropipette puller, Sutter Instrument Co.), graduated, and placed on a microinjector (Nanoject II Auto-Nanoliter Injector, Drummond Scientific Co.). 50 nl of nuclease-free water alone (control oocytes) or 50 nl of 0.6 μg μl^−1 RNA were injected under stereomicroscopic control. Injected oocytes were incubated for 46–72 h at 18 °C with twice-daily buffer changes before usage in experiments.
(§3) Drug uptake assays were performed as described previously[21],[22],[24],[34]. […] The direction of radio-labeled drug transport is here from the mostly acidic extracellular solution (pH 4.5 or 6.0, as indicated) into the oocyte cytosol (pH ∼ 7.2), which corresponds to the efflux of drug from the acidic digestive vacuole (pH 5.2) into the parasite cytoplasm (pH 7.2). The topology of PfCRT in the oolemma is such that both the N- and C-terminus face the extracellular milieu[3],[22]. In the parasite, the N- and C-terminus face the lumen of the digestive vacuole. CQ uptake kinetics were performed by incubating oocytes in ND96 buffer adjusted to a pH of 4.5, 5.0, 5.5, or 6.0 and supplemented with 50 nM [^3H]CQ and one of 7 different CQ concentrations (10 µM, 50 µM, 100 µM, 200 µM, 300 µM, 400 µM, 500 µM CQ). The reaction was stopped at the 60 min time point, which is in the linear uptake range[22],[34] (Supplementary Fig. 17). For determination of the amount of drug uptake for each oocyte, the reaction medium was removed and the oocytes were washed three times with 2 ml of ice-cold ND96 buffer. Each oocyte was individually transferred to a scintillation vial containing 5% sodium dodecyl sulfate (200 μl) for lysis. The radioactivity of each sample was measured using a liquid scintillation analyzer Tri-Carb 4910 TR (PerkinElmer). Oocytes that were injected with water instead of RNA were analyzed in parallel, representing the uptake of a drug by diffusion and/or endogenous permeation pathways. The resulting value represents the “background“ level of drug accumulation in oocytes (in-depth discussion in[22]). […]

PfCRT variant E207P = experiment: CQ uptake assay, oocytes expressing E207P; type: cell-based, Plasmodium falciparum
Method: as §1, §2, §3

PfCRT variant E207K/K80E = experiment: CQ uptake assay, oocytes expressing E207K/K80E; type: cell-based, Plasmodium falciparum
Method: as §1, §2
Drug uptake assays were performed as described previously[21],[22],[24],[34]. […] The radioactivity of each sample was measured using a liquid scintillation analyzer Tri-Carb 4910 TR (PerkinElmer). Oocytes that were injected with water instead of RNA were analyzed in parallel, representing the uptake of a drug by diffusion and/or endogenous permeation pathways. […]

PfCRT variant Y177A = experiment: CQ uptake assay, oocytes expressing Y177A; type: cell-based, Plasmodium falciparum
Method: as §1, §2
Drug uptake assays were performed as described previously[21],[22],[24],[34]. […] The direction of radio-labeled drug transport is here from the mostly acidic extracellular solution (pH 4.5 or 6.0, as indicated) into the oocyte cytosol (pH ∼ 7.2), which corresponds to the efflux of drug from the acidic digestive vacuole (pH 5.2) into the parasite cytoplasm (pH 7.2). The topology of PfCRT in the oolemma is such that both the N- and C-terminus face the extracellular milieu[3],[22]. In the parasite, the N- and C-terminus face the lumen of the digestive vacuole. CQ uptake kinetics were performed by incubating oocytes in ND96 buffer adjusted to a pH of 4.5, 5.0, 5.5, or 6.0 and supplemented with 50 nM [^3H]CQ and one of 7 different CQ concentrations (10 µM, 50 µM, 100 µM, 200 µM, 300 µM, 400 µM, 500 µM CQ). The reaction was stopped at the 60 min time point, which is in the linear uptake range[22],[34] (Supplementary Fig. 17). […] The radioactivity of each sample was measured using a liquid scintillation analyzer Tri-Carb 4910 TR (PerkinElmer). Oocytes that were injected with water instead of RNA were analyzed in parallel, representing the uptake of a drug by diffusion and/or endogenous permeation pathways. […]

[1] = H46A, 50 µM CQ, 1 h, mean ± SEM
[2] = pH 4.5, single replicates, Fig 1d left
[3] = pH 6.0, single replicates, Fig 1d left
[4] = E207P, 50 µM CQ, 1 h, mean ± SEM
[5] = E207K/K80E, 50 µM CQ, 1 h, mean ± SEM
[6] = Y177A, 50 µM CQ, 1 h, mean ± SEM

CCN(CC)CCCC(C)Nc1ccnc2cc(Cl)ccc12 (stereo not drawn) [CQ, chloroquine]
Activity at pH 4.5 (PfCRT variant H46A; [1]): 2.03 ± 0.27 pmol h-1 oocyte-1
Activity at pH 6.0 (PfCRT variant H46A; [1]): 5.06 ± 0.47 pmol h-1 oocyte-1
R-value (PfCRT variant H46A; H46A, CQ transport at pH 4.5 / pH 6.0): 0.40 ± 0.03
H46A transport activity pH 4.5 (PfCRT variant H46A; [2]): 2.52 pmol oocyte-1 h-1 and 1.13 pmol oocyte-1 h-1 and 2.13 pmol oocyte-1 h-1 and 2.35 pmol oocyte-1 h-1
H46A R-value (PfCRT variant H46A; pH 4.5 vs pH 6.0, Fig 1d left): 0.45 and 0.32 and 0.36
H46A transport activity pH 6.0 (PfCRT variant H46A; [3]): 5.57 pmol oocyte-1 h-1 and 3.48 pmol oocyte-1 h-1 and 5.92 pmol oocyte-1 h-1 and 5.27 pmol oocyte-1 h-1
Activity at pH 4.5 (PfCRT variant E207P; [4]): 2.31 ± 0.3 pmol h-1 oocyte-1
Activity at pH 6.0 (PfCRT variant E207P; [4]): 2.45 ± 0.21 pmol h-1 oocyte-1
R-value (PfCRT variant E207P; E207P, CQ transport at pH 4.5 / pH 6.0): 0.93 ± 0.05
E207P transport activity pH 4.5 (PfCRT variant E207P; pH 4.5, individual replicates, Fig 6b): 2.94 pmol oocyte-1 h-1 and 1.66 pmol oocyte-1 h-1 and 2.34 pmol oocyte-1 h-1
E207P transport activity pH 6.0 (PfCRT variant E207P; pH 6.0, individual replicates, Fig 6b): 2.94 pmol oocyte-1 h-1 and 2.08 pmol oocyte-1 h-1 and 2.34 pmol oocyte-1 h-1
E207PR-value (PfCRT variant E207P; ratio of activity pH 4.5 / pH 6.0): 1.00 and 0.80
Activity at pH 4.5 (PfCRT variant E207K/K80E; [5]): 1.85 ± 0.84 pmol h-1 oocyte-1
Activity at pH 6.0 (PfCRT variant E207K/K80E; [5]): 4.75 ± 0.91 pmol h-1 oocyte-1
E207K/K80E transport activity pH 4.5 (PfCRT variant E207K/K80E; pH 4.5, individual replicates (Fig 6a)): 3.47 pmol oocyte-1 h-1 and 1.46 pmol oocyte-1 h-1 and 0.63 pmol oocyte-1 h-1
E207K/K80E transport activity pH 6.0 (PfCRT variant E207K/K80E; pH 6.0, individual replicates (Fig 6a)): 6.4 pmol oocyte-1 h-1 and 4.59 pmol oocyte-1 h-1 and 3.25 pmol oocyte-1 h-1
Activity at pH 4.5 (PfCRT variant Y177A; [6]): 1.25 ± 0.21 pmol h-1 oocyte-1
Activity at pH 6.0 (PfCRT variant Y177A; [6]): 2.94 ± 0.26 pmol h-1 oocyte-1
R-value (PfCRT variant Y177A; Y177A, CQ transport at pH 4.5 / pH 6.0): 0.44 ± 0.11
Y177A transport activity pH 4.5 (PfCRT variant Y177A; [2]): 0.79 pmol oocyte-1 h-1 and 1.73 pmol oocyte-1 h-1 and 1.60 pmol oocyte-1 h-1 and 0.87 pmol oocyte-1 h-1
Y177A transport activity pH 6.0 (PfCRT variant Y177A; [3]): 2.11 pmol oocyte-1 h-1 and 3.29 pmol oocyte-1 h-1 and 2.90 pmol oocyte-1 h-1 and 3.47 pmol oocyte-1 h-1
